From PubChem BioAssay (NCI)
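Where inhibition never reached the appropriate level, the endpoint shown equals the highest concentration tested. Otherwise, values were interpolated linearly from a five-concentration, 48-hour dose response in 96-well plates. At the GI50, growth is halved. TGI is the concentration that stops growth completely.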

Key:
Assay in all cases: inhibition of tumour cell growth, NCI panel, 48 h
SK-MEL-2 melanoma = test system: SK-MEL-2 melanoma
786-0 renal = test system: 786-0 renal
HCT-15 colon = test system: HCT-15 colon
T-47D breast = test system: T-47D breast
U251 CNS = test system: U251 CNS
PC-3 prostate = test system: PC-3 prostate
MCF7 breast = test system: MCF7 breast
EKVX NSCLC = test system: EKVX NSCLC
RXF 393 renal = test system: RXF 393 renal
SK-OV-3 ovarian = test system: SK-OV-3 ovarian
HT29 colon = test system: HT29 colon
OVCAR-5 ovarian = test system: OVCAR-5 ovarian
NCI-H23 lung = test system: NCI-H23 lung
SF-539 CNS = test system: SF-539 CNS
TK-10 renal = test system: TK-10 renal
OVCAR-4 ovarian = test system: OVCAR-4 ovarian
CCRF-CEM leukemia = test system: CCRF-CEM leukemia
LOX IMVI melanoma = test system: LOX IMVI melanoma
SK-MEL-5 melanoma = test system: SK-MEL-5 melanoma
UACC-257 melanoma = test system: UACC-257 melanoma
SF-295 CNS = test system: SF-295 CNS
A498 renal = test system: A498 renal
KM12 colon = test system: KM12 colon
HOP-62 NSCLC = test system: HOP-62 NSCLC
M14 melanoma = test system: M14 melanoma
HS 578T breast = test system: HS 578T breast
MOLT-4 leukemia = test system: MOLT-4 leukemia
SNB-75 CNS = test system: SNB-75 CNS
BT-549 breast = test system: BT-549 breast
UACC-62 melanoma = test system: UACC-62 melanoma
SN12C renal = test system: SN12C renal
K-562 leukemia = test system: K-562 leukemia
NCI-H460 lung = test system: NCI-H460 lung
NCI/ADR-RES ovarian = test system: NCI/ADR-RES ovarian
MDA-MB-435 = test system: MDA-MB-435
ACHN renal = test system: ACHN renal
SF-268 CNS = test system: SF-268 CNS
NCI-H522 lung = test system: NCI-H522 lung
HOP-92 NSCLC = test system: HOP-92 NSCLC
MDA-MB-231 breast = test system: MDA-MB-231 breast
SK-MEL-28 melanoma = test system: SK-MEL-28 melanoma
HCC-2998 colon = test system: HCC-2998 colon
OVCAR-3 ovarian = test system: OVCAR-3 ovarian
MALME-3M melanoma = test system: MALME-3M melanoma
UO-31 renal = test system: UO-31 renal
OVCAR-8 ovarian = test system: OVCAR-8 ovarian
SR leukemia = test system: SR leukemia
IGROV1 ovarian = test system: IGROV1 ovarian
DU-145 prostate = test system: DU-145 prostate
COLO 205 colon = test system: COLO 205 colon
CAKI-1 renal = test system: CAKI-1 renal
RPMI-8226 leukemia = test system: RPMI-8226 leukemia
SNB-19 CNS = test system: SNB-19 CNS
A549 NSCLC = test system: A549 NSCLC
SW-620 colon = test system: SW-620 colon
NCI-H226 lung = test system: NCI-H226 lung
HCT-116 colon = test system: HCT-116 colon

O=C1NC(=C(Cl)Cl)/C(=N/S(=O)(=O)N2CCCCC2CC2(C(F)(F)F)N=N2)N1 (centres undefined)
GI50 (SK-MEL-2 melanoma): 1.86 µM
TGI (SK-MEL-2 melanoma): 3.9 µM
GI50 (786-0 renal): 3.2 µM
TGI (786-0 renal): 9.62 µM
GI50 (HCT-15 colon): 0.398 µM
TGI (HCT-15 colon): 1.5 µM
GI50 (T-47D breast): 4.16 µM
TGI (T-47D breast): 22.1 µM
GI50 (U251 CNS): 1.86 µM
TGI (U251 CNS): 3.67 µM
GI50 (PC-3 prostate): 2.26 µM
TGI (PC-3 prostate): 6.37 µM
GI50 (MCF7 breast): 0.769 µM
TGI (MCF7 breast): 11.8 µM
GI50 (EKVX NSCLC): 2.04 µM
TGI (EKVX NSCLC): 4.33 µM
GI50 (RXF 393 renal): 1.67 µM
TGI (RXF 393 renal): 3.22 µM
GI50 (SK-OV-3 ovarian): 15.1 µM
TGI (SK-OV-3 ovarian): 29.8 µM
GI50 (HT29 colon): 1.88 µM
TGI (HT29 colon): 3.61 µM
GI50 (OVCAR-5 ovarian): 1.9 µM
TGI (OVCAR-5 ovarian): 3.84 µM
GI50 (NCI-H23 lung): 1.71 µM
TGI (NCI-H23 lung): 3.77 µM
GI50 (SF-539 CNS): 1.79 µM
TGI (SF-539 CNS): 3.56 µM
GI50 (TK-10 renal): 4.53 µM
TGI (TK-10 renal): 14.2 µM
GI50 (OVCAR-4 ovarian): 1.76 µM
TGI (OVCAR-4 ovarian): 3.2 µM
GI50 (CCRF-CEM leukemia): 1.99 µM
TGI (CCRF-CEM leukemia): 5.57 µM
GI50 (LOX IMVI melanoma): 0.43 µM
TGI (LOX IMVI melanoma): 1.58 µM
GI50 (SK-MEL-5 melanoma): 2.4 µM
TGI (SK-MEL-5 melanoma): 5.93 µM
GI50 (UACC-257 melanoma): 1.96 µM
TGI (UACC-257 melanoma): 4.48 µM
GI50 (SF-295 CNS): 3.23 µM
TGI (SF-295 CNS): 12.1 µM
GI50 (A498 renal): 11.4 µM
TGI (A498 renal): 24.1 µM
GI50 (KM12 colon): 3.14 µM
TGI (KM12 colon): 12.2 µM
GI50 (HOP-62 NSCLC): 3.22 µM
TGI (HOP-62 NSCLC): 13.5 µM
GI50 (M14 melanoma): 1.85 µM
TGI (M14 melanoma): 3.93 µM
GI50 (HS 578T breast): 2.83 µM
TGI (HS 578T breast): 9.84 µM
GI50 (MOLT-4 leukemia): 1.68 µM
TGI (MOLT-4 leukemia): 4.43 µM
GI50 (SNB-75 CNS): 3.5 µM
TGI (SNB-75 CNS): 17.4 µM
GI50 (BT-549 breast): 1.89 µM
TGI (BT-549 breast): 3.67 µM
GI50 (UACC-62 melanoma): 1.74 µM
TGI (UACC-62 melanoma): 3.57 µM
GI50 (SN12C renal): 1.29 µM
TGI (SN12C renal): 2.57 µM
GI50 (K-562 leukemia): 0.628 µM
TGI (K-562 leukemia): 10.8 µM
GI50 (NCI-H460 lung): 3.06 µM
TGI (NCI-H460 lung): 10.7 µM
GI50 (NCI/ADR-RES ovarian): 3.45 µM
TGI (NCI/ADR-RES ovarian): 15.4 µM
GI50 (MDA-MB-435): 2.24 µM
TGI (MDA-MB-435): 5.38 µM
GI50 (ACHN renal): 1.74 µM
TGI (ACHN renal): 3.12 µM
GI50 (SF-268 CNS): 3.35 µM
TGI (SF-268 CNS): 13.1 µM
GI50 (NCI-H522 lung): 1.54 µM
TGI (NCI-H522 lung): 3.13 µM
GI50 (HOP-92 NSCLC): 1.73 µM
TGI (HOP-92 NSCLC): 3.61 µM
GI50 (MDA-MB-231 breast): 1.73 µM
TGI (MDA-MB-231 breast): 3.44 µM
GI50 (SK-MEL-28 melanoma): 1.85 µM
TGI (SK-MEL-28 melanoma): 3.33 µM
GI50 (HCC-2998 colon): 1.86 µM
TGI (HCC-2998 colon): 3.38 µM
GI50 (OVCAR-3 ovarian): 2.05 µM
TGI (OVCAR-3 ovarian): 4.13 µM
GI50 (MALME-3M melanoma): 1.57 µM
TGI (MALME-3M melanoma): 2.99 µM
GI50 (UO-31 renal): 2.69 µM
TGI (UO-31 renal): 12.4 µM
GI50 (OVCAR-8 ovarian): 2.21 µM
TGI (OVCAR-8 ovarian): 5.17 µM
GI50 (SR leukemia): 0.431 µM
TGI (SR leukemia): 2.67 µM
GI50 (IGROV1 ovarian): 1.58 µM
TGI (IGROV1 ovarian): 3.09 µM
GI50 (DU-145 prostate): 3.47 µM
TGI (DU-145 prostate): 11.8 µM
GI50 (COLO 205 colon): 1.89 µM
TGI (COLO 205 colon): 3.68 µM
GI50 (CAKI-1 renal): 1.7 µM
TGI (CAKI-1 renal): 3.09 µM
GI50 (RPMI-8226 leukemia): 0.385 µM
TGI (RPMI-8226 leukemia): 8.08 µM
GI50 (SNB-19 CNS): 2 µM
TGI (SNB-19 CNS): 4.53 µM
GI50 (A549 NSCLC): 3.72 µM
TGI (A549 NSCLC): 14 µM
GI50 (SW-620 colon): 1.67 µM
TGI (SW-620 colon): 3.24 µM
GI50 (NCI-H226 lung): 15.5 µM
TGI (NCI-H226 lung): 44.4 µM
GI50 (HCT-116 colon): 1.73 µM
TGI (HCT-116 colon): 3.26 µM
